Here are results for 53 compounds from patent publication US9944603B2, “Compounds and methods for the treatment of cystic fibrosis” (Flatley Discovery Lab, LLC, priority 2013, dated 2018).

The experiment addresses T1, human F508del CFTR (Homo sapiens, UniProt P13569, DEL508-508).
T1 construct: expressed in transfected cells
Nature of the experiment: CFTR-YFP Assay, CFTR Corrector Protocol (YFP flux assay). The format is cell-based. As to conditions: for Emax: normalized to the positive control, read-out: EMAX (% Efficacy, EMAX normalized to the positive control).

T1 sequence (P13569 with tags, fused parts or gaps DEL508-508): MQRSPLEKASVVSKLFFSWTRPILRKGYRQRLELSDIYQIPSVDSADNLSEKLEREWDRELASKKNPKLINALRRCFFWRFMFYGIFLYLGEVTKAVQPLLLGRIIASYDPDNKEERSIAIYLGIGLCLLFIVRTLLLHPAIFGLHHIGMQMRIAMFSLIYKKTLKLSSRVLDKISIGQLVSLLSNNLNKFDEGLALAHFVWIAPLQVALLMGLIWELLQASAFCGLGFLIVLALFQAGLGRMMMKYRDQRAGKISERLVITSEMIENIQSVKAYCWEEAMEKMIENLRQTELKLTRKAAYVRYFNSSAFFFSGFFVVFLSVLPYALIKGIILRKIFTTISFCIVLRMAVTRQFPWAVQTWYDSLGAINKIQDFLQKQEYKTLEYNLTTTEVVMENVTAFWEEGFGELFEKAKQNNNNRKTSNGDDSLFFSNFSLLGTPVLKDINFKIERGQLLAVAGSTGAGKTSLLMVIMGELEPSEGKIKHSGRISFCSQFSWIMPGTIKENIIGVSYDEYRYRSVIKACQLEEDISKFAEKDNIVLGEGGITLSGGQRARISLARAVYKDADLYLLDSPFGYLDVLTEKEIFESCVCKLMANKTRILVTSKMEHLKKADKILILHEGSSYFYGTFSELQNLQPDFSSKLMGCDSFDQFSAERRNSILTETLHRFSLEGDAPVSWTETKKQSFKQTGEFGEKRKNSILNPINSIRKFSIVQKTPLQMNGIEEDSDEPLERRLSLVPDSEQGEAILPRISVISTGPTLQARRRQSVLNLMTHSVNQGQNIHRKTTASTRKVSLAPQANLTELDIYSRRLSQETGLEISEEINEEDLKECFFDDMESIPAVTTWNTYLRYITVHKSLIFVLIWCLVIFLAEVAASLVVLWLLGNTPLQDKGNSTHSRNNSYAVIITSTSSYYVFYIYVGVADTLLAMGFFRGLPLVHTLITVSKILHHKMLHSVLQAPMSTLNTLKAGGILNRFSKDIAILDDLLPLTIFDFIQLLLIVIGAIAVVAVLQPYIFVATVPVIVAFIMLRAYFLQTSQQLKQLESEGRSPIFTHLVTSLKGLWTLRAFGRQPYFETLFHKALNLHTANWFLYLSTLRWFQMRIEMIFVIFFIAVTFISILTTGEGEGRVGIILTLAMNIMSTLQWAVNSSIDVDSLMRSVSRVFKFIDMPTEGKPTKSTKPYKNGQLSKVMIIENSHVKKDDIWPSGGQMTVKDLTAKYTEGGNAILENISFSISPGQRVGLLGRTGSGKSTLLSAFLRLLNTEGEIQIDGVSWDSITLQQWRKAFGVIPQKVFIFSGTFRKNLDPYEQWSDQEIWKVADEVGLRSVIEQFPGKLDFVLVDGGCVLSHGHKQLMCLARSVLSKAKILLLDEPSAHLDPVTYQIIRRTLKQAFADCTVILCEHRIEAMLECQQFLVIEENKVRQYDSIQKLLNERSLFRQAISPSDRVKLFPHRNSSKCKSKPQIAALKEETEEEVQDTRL

Turning to `CCc1ccc(S(=O)(=O)N2CCC(N(C(=O)Nc3ccccc3)c3cccc(C)n3)CC2)cc1` [Example 179], the EC50 was less than 10 µM and the Emax fell in the range of 10 to 30%.

For the compound `Cc1ccc2nc(-c3ccccc3F)n(C3CCN(S(=O)(=O)c4ccc5c(c4)OC(F)(F)O5)CC3)c2n1` [Example 83], the 50% effective concentration (EC50) is less than 10 µM and the maximum response (Emax) lay in the range of 30 to 80%.

With `O=S(=O)(c1c[nH]cn1)N1CCC(n2c(-c3ccccc3)nc3cccnc32)CC1` [Example 72], the EC50 is less than 10 µM and the Emax lay in the range of 10 to 30%.

Consider `O=S(=O)(c1ccc2c(c1)OC(F)(F)O2)N1CCC(n2c(-c3ccncc3Cl)nc3cccnc32)CC1` [Example 38], for which the EC50 is less than 10 µM and the maximal effect (Emax) is greater than 80%.

Turning to `Cc1ccc(S(=O)(=O)N2CCC(n3c(-c4ccccc4Cl)nc4cccnc43)CC2)cc1` [Example 59], the EC50 is less than 10 µM and the maximal effect (Emax) was in the range of 30 to 80%.

With `CCc1ccc(S(=O)(=O)N2CCC(N(c3ccccn3)S(=O)(=O)c3ccc(C)cc3)CC2)cc1` [Example 229], the 50% effective concentration (EC50) is less than 10 µM and the Emax fell in the range of 10 to 30%.

With `CCc1ccc(S(=O)(=O)N2CCC(N(c3ccc(OC)cc3)S(=O)(=O)c3ccccc3Cl)CC2)cc1` [Example 236], the EC50 was less than 10 µM and the Emax was 10 to 30%.

Regarding `CCc1ccc(S(=O)(=O)N2CCC(n3c(-c4ccncc4Cl)nc4c(OC)ccnc43)CC2)cc1` [Example 170], the 50% effective concentration (EC50) is greater than 20 µM and the maximum response (Emax) was in the range of 10 to 30%.

Consider `CCc1ccc(S(=O)(=O)N2CCC(N(c3ccccn3)S(=O)(=O)c3cccc(Cl)c3)CC2)cc1` [Example 234], for which the 50% effective concentration (EC50) is less than 10 µM and the Emax lay in the range of 30 to 80%.

On to `CCc1ccc(S(=O)(=O)N2CCC(N(c3ccc(OC)cn3)S(=O)(=O)c3ccccc3Cl)CC2)cc1` [Example 218], for which the EC50 was less than 10 µM and the Emax lay within 10 to 30%.

For `CCc1ccc(S(=O)(=O)N2CCC(n3c(-c4ccncc4F)nc4cccnc43)CC2)cc1` [Example 110], the EC50 was less than 10 µM and the maximal effect (Emax) fell in the range of 30 to 80%.

Consider `Cc1cc2cc(S(=O)(=O)N3CCC(n4c(-c5ccncn5)nc5cccnc54)CC3)ccc2[nH]1` [Example 147], for which the EC50 was less than 10 µM and the maximal effect (Emax) lay in the range of 10 to 30%.

On to `O=S(=O)(c1ccc2c(c1)OCO2)N1CCC(n2c(-c3ncccc3Cl)nc3cccnc32)CC1` [Example 93], for which the EC50 is less than 10 µM and the maximal response (Emax) lay in the range of 30 to 80%.

With `COc1ccc(S(=O)(=O)N2CCC(N(C(=O)c3ccccc3Cl)c3ccccn3)CC2)cc1Cl` [Example 198], the concentration giving a half-maximal response (EC50) is less than 10 µM and the Emax fell in the range of 10 to 30%.

In the case of `O=S(=O)(c1ccc2c(c1)CCC2)N1CCC(n2c(-c3ccc(F)cc3F)nc3cccnc32)CC1` [Example 122], the concentration giving a half-maximal response (EC50) was less than 10 µM and the Emax was greater than 80%.

`CCc1ccc(S(=O)(=O)N2CCC(N(c3ccccn3)S(=O)(=O)c3ccccc3Cl)CC2)cc1` [Example 182]: the EC50 is less than 10 µM and the Emax was 10 to 30%.

In the case of `CCc1ccc(S(=O)(=O)N2CCC(N(c3cc(OC)ccn3)S(=O)(=O)c3ccccc3Cl)CC2)cc1` [Example 244], the half-maximal effective concentration (EC50) is 10 to 20 µM and the Emax is 30 to 80%.

Consider `O=S(=O)(c1ccc(OC(F)F)cc1)N1CCC(n2c(-c3ccccc3Cl)nc3cccnc32)CC1` [Example 46], for which the EC50 was less than 10 µM and the Emax lay within 30 to 80%.

Regarding `CCc1ccc(S(=O)(=O)N2CCC(n3c(-c4ncccc4Cl)nc4cccnc43)CC2)cc1` [Example 91], the concentration for a half-maximal effect (EC50) is less than 10 µM and the Emax lay in the range of 30 to 80%.

Take `O=S(=O)(c1ccc2c(c1)OC(F)(F)O2)N1CCC(n2c(-c3ccccc3)nc3cccnc32)CC1` [Example 48]: the EC50 was less than 10 µM and the maximal effect (Emax) is 30 to 80%.

As for `COc1ccc2c(c1)nc(-c1ccccc1Cl)n2C1CCN(S(=O)(=O)c2ccc3c(c2)OC(F)(F)O3)CC1` [Example 153], the EC50 is less than 10 µM and the maximal effect (Emax) was 30 to 80%.

`CCc1ccc(S(=O)(=O)N2CCC(n3c(-c4ccncn4)nc4ccc(C)nc43)CC2)cc1` [Example 115]: the EC50 was less than 10 µM and the Emax was 30 to 80%.

Consider `COc1ccc(S(=O)(=O)N2CCC(n3c(-c4cccnc4Cl)nc4cccnc43)CC2)cc1Cl` [Example 88], for which the EC50 was greater than 20 µM and the maximum response (Emax) was 30 to 80%.

On to `Cc1n[nH]c2ccc(S(=O)(=O)N3CCC(n4c(-c5ccc(F)cc5F)nc5cccnc54)CC3)cc12` [Example 144], for which the half-maximal effective concentration (EC50) was less than 10 µM and the maximal response (Emax) is 10 to 30%.

For `Cc1ccc2nc(-c3ccccc3Cl)n(C3CCN(S(=O)(=O)c4ccc5c(c4)OC(F)(F)O5)CC3)c2n1` [Example 86], the EC50 is less than 10 µM and the Emax was 30 to 80%.

For `CCc1ccc(S(=O)(=O)N2CCC(N(c3cccc(C)c3)S(=O)(=O)c3ccccc3Cl)CC2)cc1` [Example 238], the concentration for a half-maximal effect (EC50) was less than 10 µM and the Emax lay in the range of 30 to 80%.

With `Cc1cccc(N(C(=O)c2ccccc2)C2CCN(S(=O)(=O)c3ccc4c(c3)OC(F)(F)O4)CC2)n1` [Example 205], the concentration giving a half-maximal response (EC50) is less than 10 µM and the Emax lay within 10 to 30%.

For `COc1ccc(S(=O)(=O)N2CCC(n3c(-c4ccc(F)cc4F)nc4cccnc43)CC2)cc1Cl` [Example 53], the concentration giving a half-maximal response (EC50) was less than 10 µM and the Emax fell in the range of 30 to 80%.

`CCc1ccc(S(=O)(=O)N2CCC(N(c3cccc(Cl)n3)S(=O)(=O)c3ccccc3Cl)CC2)cc1` [Example 232]: the EC50 was less than 10 µM and the maximum response (Emax) fell in the range of 10 to 30%.

Regarding `O=S(=O)(c1ccc2c(c1)OC(F)(F)O2)N1CCC(n2c(-c3ccc(F)nc3F)nc3cccnc32)CC1` [Example 106], the EC50 is less than 10 µM and the Emax fell in the range of 10 to 30%.

As for `CCc1ccc(S(=O)(=O)N2CCC(n3c(-c4cccnc4Cl)nc4cccnc43)CC2)cc1` [Example 45], the concentration giving a half-maximal response (EC50) is less than 10 µM and the Emax is 30 to 80%.

As for `Cc1ccc2nc(-c3ccccc3)n(C3CCN(S(=O)(=O)c4ccc5c(c4)OCO5)CC3)c2n1` [Example 62], the EC50 is less than 10 µM and the Emax lay in the range of 30 to 80%.

Turning to `COc1ccc(S(=O)(=O)N2CCC(N(C(=O)c3ccccc3)c3ccccn3)CC2)cc1F` [Example 171], the concentration for a half-maximal effect (EC50) is less than 10 µM and the maximum response (Emax) was 10 to 30%.

With `COc1ccc(S(=O)(=O)N2CCC(n3c(-c4ccccc4OC(C)=O)nc4cccnc43)CC2)cc1Cl` [Example 80], the EC50 is less than 10 µM and the Emax was in the range of 30 to 80%.

Consider `CC1Cc2cc(S(=O)(=O)N3CCC(n4c(-c5ccc(F)cc5F)nc5cccnc54)CC3)ccc2N1` (stereo not shown) [Example 149], for which the EC50 is less than 10 µM and the maximal effect (Emax) fell in the range of 10 to 30%.

As to `O=S(=O)(c1ccc2c(c1)OCO2)N1CCC(n2c(-c3ccc(F)cc3F)nc3cccnc32)CC1` [Example 108], the EC50 is less than 10 µM and the maximal response (Emax) fell in the range of 30 to 80%.

With `COc1ccc(S(=O)(=O)N2CCC(N(C(=O)c3ccccc3Cl)c3cccc(C)n3)CC2)cc1F` [Example 200], the 50% effective concentration (EC50) was less than 10 µM and the maximal effect (Emax) fell in the range of 10 to 30%.

On to `CCc1ccc(S(=O)(=O)N2CCC(N(c3cccc(C)n3)S(=O)(=O)c3ccccc3)CC2)cc1` [Example 186], for which the EC50 is less than 10 µM and the maximal effect (Emax) was 10 to 30%.

Regarding `O=S(=O)(c1ccc2snc(Cl)c2c1)N1CCC(n2c(-c3ccncc3F)nc3cccnc32)CC1` [Example 158], the EC50 was 10 to 20 µM and the maximum response (Emax) was 10 to 30%.

Turning to `CC(=O)N1c2ccc(S(=O)(=O)N3CCC(n4c(-c5ccncc5F)nc5cccnc54)CC3)cc2CC1C` (stereo not shown) [Example 145], the EC50 is less than 10 µM and the maximal effect (Emax) was in the range of 10 to 30%.

For the compound `O=S(=O)(c1ccc2c(c1)CCC2)N1CCC(n2c(-c3ccncc3F)nc3cccnc32)CC1` [Example 51], the concentration for a half-maximal effect (EC50) was less than 10 µM and the Emax was in the range of 30 to 80%.

In the case of `O=C(c1ccccc1)N(c1ccccn1)C1CCN(S(=O)(=O)c2ccc3c(c2)OC(F)(F)O3)CC1` [Example 204], the EC50 was less than 10 µM and the Emax lay in the range of 10 to 30%.

For the compound `COc1ccc(S(=O)(=O)N2CCC(n3c(-c4ccc(C(F)(F)F)cc4)nc4cccnc43)CC2)cc1Cl` [Example 78], the EC50 was less than 10 µM and the maximum response (Emax) fell in the range of 10 to 30%.

As to `COc1ccc2nc(-c3ccncc3Cl)n(C3CCN(S(=O)(=O)c4ccc5c(c4)OC(F)(F)O5)CC3)c2n1` [Example 118], the EC50 is less than 10 µM and the Emax lay in the range of 30 to 80%.

For the compound `COc1ccc(N(C2CCN(S(=O)(=O)c3ccc4c(c3)OC(F)(F)O4)CC2)S(=O)(=O)c2ccccc2Cl)nc1` [Example 219], the half-maximal effective concentration (EC50) was less than 10 µM and the Emax lay within 10 to 30%.

As for `CCc1ccc(S(=O)(=O)N2CCC(n3c(-c4ccncc4F)nc4ccc(OC)nc43)CC2)cc1` [Example 138], the concentration for a half-maximal effect (EC50) was greater than 20 µM and the Emax lay within 30 to 80%.

As to `Cc1cccc(N(C2CCN(S(=O)(=O)c3ccc4c(c3)OC(F)(F)O4)CC2)S(=O)(=O)c2ccccc2)n1` [Example 188], the concentration giving a half-maximal response (EC50) is less than 10 µM and the maximum response (Emax) fell in the range of 10 to 30%.

As to `O=S(=O)(c1cccc(OC(F)F)c1)N1CCC(n2c(-c3ccncc3Cl)nc3cccnc32)CC1` [Example 94], the half-maximal effective concentration (EC50) was less than 10 µM and the maximum response (Emax) was in the range of 10 to 30%.

For `CCc1ccc(S(=O)(=O)N2CCC(n3c(-c4ccncc4F)nc4c(OC)ccnc43)CC2)cc1` [Example 169], the EC50 is less than 10 µM and the Emax was in the range of 30 to 80%.

Regarding `Cc1ccc(S(=O)(=O)N2CCC(n3c(-c4ccncc4Cl)nc4cccnc43)CC2)cc1C#N` [Example 95], the 50% effective concentration (EC50) lay in the range of 10 to 20 µM and the Emax is 10 to 30%.

With `CCc1ccc(S(=O)(=O)N2CCC(n3c(-c4ccncc4Cl)nc4cccnc43)CC2)cc1` [Example 41], the EC50 is less than 10 µM and the maximal response (Emax) fell in the range of 30 to 80%.

Consider `CCc1ccc(S(=O)(=O)N2CCC(n3c(-c4ccncc4Cl)nc4ccc(OC)nc43)CC2)cc1` [Example 42], for which the 50% effective concentration (EC50) was less than 10 µM and the Emax lay within 30 to 80%.

For the compound `COc1ccc(S(=O)(=O)N2CCC(N(c3cccc(C)n3)S(=O)(=O)c3ccccc3)CC2)cc1Cl` [Example 187], the EC50 is less than 10 µM and the Emax was 10 to 30%.

For orientation: EC50 means the concentration at which the effect is half-maximal. Read a low EC50 as a more potent agent. What is called Emax is the greatest response seen or fitted, relative to the assay's reference.
